PMC7687371, “Quantitative in Vitro to in Vivo Extrapolation (QIVIVE) for Predicting Reduced Anogenital Distance Produced by Anti-Androgenic Pesticides in a Rodent Model for Male Reproductive Disorders” (Environmental Health Perspectives, 2020)
Read-outs that look alike come from different tables or passages of the source. Marks after values point to notes of the source that are not given here.

What was measured:
[1] = tested on: Wistar rats; assay: In vivo Study 3 (fludioxonil, cyprodinil, dimethomorph), reproductive/developmental toxicity, AGD; details: for AGDI mean: Study 3, male pups
[2] = target: T1, androgen receptor (AR) (Homo sapiens, UniProt P10275); parameters: method as in Orton et al. (2011); details: ref Orton et al. (2011), cited from earlier work
T1 construct: host or cells: AR-EcoScreen cells
T1 sequence (P10275 1-920): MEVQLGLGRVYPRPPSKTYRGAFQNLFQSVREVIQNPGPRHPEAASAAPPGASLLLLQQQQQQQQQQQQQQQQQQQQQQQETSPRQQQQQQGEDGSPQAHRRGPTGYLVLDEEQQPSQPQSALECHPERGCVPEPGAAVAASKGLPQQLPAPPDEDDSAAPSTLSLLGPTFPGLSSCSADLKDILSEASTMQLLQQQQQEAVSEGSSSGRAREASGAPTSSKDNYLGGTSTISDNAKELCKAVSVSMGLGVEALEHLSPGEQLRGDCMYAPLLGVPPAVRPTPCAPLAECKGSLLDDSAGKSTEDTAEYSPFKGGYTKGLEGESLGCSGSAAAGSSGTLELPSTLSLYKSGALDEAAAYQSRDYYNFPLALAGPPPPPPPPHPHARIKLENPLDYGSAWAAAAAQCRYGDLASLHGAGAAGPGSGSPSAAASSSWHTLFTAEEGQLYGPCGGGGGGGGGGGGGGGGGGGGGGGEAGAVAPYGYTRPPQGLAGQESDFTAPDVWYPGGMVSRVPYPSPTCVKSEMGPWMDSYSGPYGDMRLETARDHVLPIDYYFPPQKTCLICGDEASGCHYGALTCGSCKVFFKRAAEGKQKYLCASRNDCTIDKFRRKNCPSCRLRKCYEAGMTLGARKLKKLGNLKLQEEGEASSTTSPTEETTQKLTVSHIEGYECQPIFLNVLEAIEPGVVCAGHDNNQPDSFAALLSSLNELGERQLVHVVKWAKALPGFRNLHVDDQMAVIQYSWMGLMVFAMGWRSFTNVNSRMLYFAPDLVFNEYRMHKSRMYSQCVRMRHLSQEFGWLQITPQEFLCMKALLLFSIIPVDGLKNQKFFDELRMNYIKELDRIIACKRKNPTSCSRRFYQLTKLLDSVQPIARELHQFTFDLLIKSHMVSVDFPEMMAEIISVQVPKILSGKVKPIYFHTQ

[3] = cited from earlier work
[4] = PBK model simulation of fetal and maternal concentrations; parameters: species or system rat
[5] = target: T1, androgen receptor (AR); assay: AR-EcoScreen androgen receptor transcriptional activation assay (AR antagonism); type: cell-based
Experimental: Experiments were run with three technical replicates and repeated three times. The mean value of technical replicates represents one biological replicate. AR-EcoScreen™ cells (JCRB1328; Japanese Collection of Research Bioresources) were grown in CellBIND® surface cell culture flasks (Corning Inc.) in growth medium consisting of Gibco® Dulbecco’s Modified Eagle’s Medium/F-12 (DMEM/F-12) Nutrient Mixture with L-glutamine and 4-(2-hydroxyethyl)-1-piperazineethanesulfonic acid (HEPES) and without phenol red supplemented with 5% fetal bovine serum (FBS), 1% penicillin-streptomycin, 200μg/mL Zeocin™ selection reagent, and 100μg/mL Hygromycin B (all reagents from Invitrogen, Life Technologies). The cells were incubated at 37°C in a humidified atmosphere of 5% carbon dioxide ( CO2 ) and 95% air. On the day before the experiment, cells were plated in white 96-well plates (Corning Inc.) at a density of 9,000 cells/well in assay medium consisting of Gibco® DMEM/F-12 Nutrient Mixture medium, 1% penicillin-streptomycin, with 5% dextran-coated charcoal-treated FBS (all reagents from Invitrogen, Life Technologies). On the following day, the medium was changed to assay medium containing the known AR agonist R1881 (Perkin Elmer) in 2-fold serial dilutions from 0.008 to 1 nM or the known AR antagonist hydroxyflutamide (CASRN 52806-53-8, Toronto Research Chemicals) in 3-fold serial dilutions from […] together with 0.1 nM R1881. […] The DMSO vehicle concentrations were kept constant in all wells (0.1%). Following approximately 20 h of exposure to test compounds firefly luminescence was measured in a luminometer (LUMIstar® Galaxy, BMG LABTECH) using Dual-Glo® Luciferase Reagent from the Dual-Glo® Luciferase Assay System from Promega. Cell viability was measured by Renilla luminescence using Dual-Glo® Stop & Glo® Reagent from the Dual-Glo® Luciferase Assay System.

## COc1ccc(C(=CC(=O)N2CCOCC2)c2ccc(Cl)cc2)cc1OC [Dimethomorph, dimethomorph]
[1]; 20 mg/kg bw/day
  % postnatal deaths: 1.4 ± 3.8%
  AGD index females: 1.12 ± 0.03
  AGD index males: 2.01 ± 0.04
[1]; 60 mg/kg bw/day
  % postnatal deaths: 2.6 ± 4.1%
  AGD index females: 1.18 ± 0.05
  AGD index males: 2.15 ± 0.08
[2]; read-out: AR antagonism (IC50), MDA-kb2 cells
  IC50: 900 nM
[2]; read-out: AR antagonism (IC20 µM)
  IC20: 300 nM
[3]; plasma
  Unbound plasma fraction (%): 9.4^g %
[4]; GD21 measurements vs PBK simulations
  Ratio between observation and prediction (fetal and dams' plasma concentrations): 0.5 to 2
[4]; dams, GD21
  Predicted maternal plasma level relative to analytically determined concentration: approximately one-tenth

## N#Cc1c[nH]cc1-c1cccc2c1OC(F)(F)O2 [Fludioxonil, fludioxonil]
[1]; 20 mg/kg bw/day
  % perinatal loss: 11.5 ± 11.9%
  % postimplantation loss: 8.4 ± 10.2%
  % postnatal deaths: 3.1 ± 9.7%
  %males: 54.8 ± 15.6%
  AGD females (mm): 2.15 ± 0.09 mm
  AGD females (units): 13.04 ± 0.5 units
  AGD males (mm): 3.84 ± 0.12 mm
  AGD males (units): 23.26 ± 0.7 units
  Dam bw gain PD 1-14: 33.1 ± 12.7
  Dam bw gain, GD7- PD 1: 23.8 ± 10.5
  Dam bw gain,GD7-21: 92.7 ± 15.8
  Female birth weight: 6.21 ± 0.5
  Gestation length: 23.0 ± 0.0 days
  Litter size: 10.5 ± 2.4
  Male birth weight: 6.48 ± 0.4
  Male weights PD 23: 48.66 ± 6.1
  Nipple retention females: 12.21 ± 0.2
  Nipple retention males: 0.04 ± 0.09
  Offspring weight PD 6: 12.98 ± 1.3
  Offspring weight PD 14: 28.07 ± 3.3
[1]; 60 mg/kg bw/day
  % perinatal loss: 18.7 ± 32.5%
  % postimplantation loss: 15.9 ± 32.1%
  % postnatal deaths: 3.4 ± 9.6%
  %males: 47.2 ± 14.5%
  AGD females (mm): 2.10 ± 0.11 mm
  AGD females (units): 12.70 ± 0.6 units
  AGD males (mm): 3.77 ± 0.16 mm
  AGD males (units): 22.83 ± 1.0 units
  Dam bw gain PD 1-14: 38.1 ± 10.8
  Dam bw gain, GD7- PD 1: 16.8 ± 8.1
  Dam bw gain,GD7-21: 84.8 ± 9.7
  Female birth weight: 6.18 ± 0.3
  Gestation length: 23.0 ± 0.0 days
  Litter size: 11.0 ± 1.3
  Male birth weight: 6.58 ± 0.4
  Male weights PD 23: 49.78 ± 6.9
  Nipple retention females: 12.13 ± 0.2
  Nipple retention males: 0.08 ± 0.16
  Offspring weight PD 6: 13.20 ± 1.6
  Offspring weight PD 14: 28.41 ± 4.2
[1]; 180 mg/kg bw/day
  % perinatal loss: 32.3 ± 35.6%
  % postimplantation loss: 31.4 ± 36.0%
  % postnatal deaths: 1.1 ± 2.7%
  %males: 63.0 ± 20.8%
  AGD females (mm): 2.15 ± 0.10 mm
  AGD females (units): 13.04 ± 0.6 units
  AGD males (mm): 3.81 ± 0.18 mm
  AGD males (units): 23.11 ± 1.1 units
  Dam bw gain PD 1-14: 23.2 ± 15.5
  Dam bw gain, GD7- PD 1: 17.5 ± 14.9
  Dam bw gain,GD7-21: 71.3 ± 20.7
  Female birth weight: 6.06 ± 0.5
  Gestation length: 22.8 ± 0.75 days
  Litter size: 8.2 ± 5.0
  Male birth weight: 6.51 ± 0.6
  Male weights PD 23: 47.97 ± 5.6
  Nipple retention females: 12.41 ± 0.6
  Nipple retention males: 0.47 ± 0.78
  Offspring weight PD 6: 12.54 ± 1.9
  Offspring weight PD 14: 26.58 ± 4.1
[1]; Study 3
  Nipple retention at PD14, statistics in words: no statistically significant effects on nipple retention
[1]; dose 20 mg/kg BW
  AGDI mean: 2.06
[1]; dose 60 mg/kg BW
  AGDI mean: 2.01
[1]; dose 180 mg/kg BW
  AGDI mean: 2.06
[1]; male offspring, normalized AGDI scale, dose 60 mg/kg BW per day
  AGDI reduction (%): 13%
[3]; ref Wetmore et al. (2012)
  Unbound plasma fraction (%): 0.5^g %

## CC12CC1(C)C(=O)N(c1cc(Cl)cc(Cl)c1)C2=O (stereo not shown) [Procymidone, procymidone, reference compound]
[5]
  IC50: 400 nM
[5]; reporter gene assay
  AR antagonism, in words: antagonized the AR
